From the kinase profiling compilation of Christmann-Franck et al. (2016)

How the values were obtained:
Experiment in all cases: radiometric filter-binding kinase assay, Kinase HotSpot
Details in all cases: compound 0.5 µM; ATP 10 µM
[1] = target: TYK2 JH1 catalytic (human) (UniProt P29597)
CDK4 CCND1 (human) = CDK4 CCND1 (human) (UniProt P24385+P11802)
CSNK1D (human) = CSNK1D (human) (UniProt P48730)
RPS6KB2 (human) = RPS6KB2 (human) (UniProt Q9UBS0)
ROCK2 (human) = ROCK2 (human) (UniProt O75116)
NLK (human) = NLK (human) (UniProt Q9UBE8)
SRMS (human) = SRMS (human) (UniProt Q9H3Y6)
EPHA2 (human) = EPHA2 (human) (UniProt P29317)
PDGFRB (human) = PDGFRB (human) (UniProt P09619)
ULK2 (human) = ULK2 (human) (UniProt Q8IYT8)
STK17A (human) = STK17A (human) (UniProt Q9UEE5)
STK25 (human) = STK25 (human) (UniProt O00506)
Chain of STK25 (human) (O00506 whole entry, looked up): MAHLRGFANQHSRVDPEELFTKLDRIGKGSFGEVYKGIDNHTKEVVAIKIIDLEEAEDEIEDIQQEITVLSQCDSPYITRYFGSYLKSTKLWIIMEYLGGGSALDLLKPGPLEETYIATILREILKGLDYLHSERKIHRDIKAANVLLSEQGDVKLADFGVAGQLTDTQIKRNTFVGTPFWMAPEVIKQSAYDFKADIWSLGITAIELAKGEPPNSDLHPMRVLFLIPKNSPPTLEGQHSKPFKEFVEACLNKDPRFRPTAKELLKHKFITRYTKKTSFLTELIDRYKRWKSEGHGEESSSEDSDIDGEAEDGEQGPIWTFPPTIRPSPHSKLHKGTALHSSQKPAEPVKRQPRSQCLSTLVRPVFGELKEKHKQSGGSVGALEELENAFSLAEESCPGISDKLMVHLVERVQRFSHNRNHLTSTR

CSNK2A2 (human) = CSNK2A2 (human) (UniProt P19784)
Chain of CSNK2A2 (human) (P19784 whole entry, looked up): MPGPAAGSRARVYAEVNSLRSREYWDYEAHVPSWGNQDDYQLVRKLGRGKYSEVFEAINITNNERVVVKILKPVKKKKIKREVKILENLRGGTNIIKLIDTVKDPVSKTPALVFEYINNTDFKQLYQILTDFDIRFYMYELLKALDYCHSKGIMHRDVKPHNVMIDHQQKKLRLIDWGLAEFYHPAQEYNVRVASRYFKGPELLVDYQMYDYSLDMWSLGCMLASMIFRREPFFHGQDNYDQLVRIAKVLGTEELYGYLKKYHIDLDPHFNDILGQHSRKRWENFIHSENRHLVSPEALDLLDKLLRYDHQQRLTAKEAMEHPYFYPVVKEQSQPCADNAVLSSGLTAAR

SRPK2 (human) = SRPK2 (human) (UniProt P78362)
Chain of SRPK2 (human) (P78362 whole entry, looked up): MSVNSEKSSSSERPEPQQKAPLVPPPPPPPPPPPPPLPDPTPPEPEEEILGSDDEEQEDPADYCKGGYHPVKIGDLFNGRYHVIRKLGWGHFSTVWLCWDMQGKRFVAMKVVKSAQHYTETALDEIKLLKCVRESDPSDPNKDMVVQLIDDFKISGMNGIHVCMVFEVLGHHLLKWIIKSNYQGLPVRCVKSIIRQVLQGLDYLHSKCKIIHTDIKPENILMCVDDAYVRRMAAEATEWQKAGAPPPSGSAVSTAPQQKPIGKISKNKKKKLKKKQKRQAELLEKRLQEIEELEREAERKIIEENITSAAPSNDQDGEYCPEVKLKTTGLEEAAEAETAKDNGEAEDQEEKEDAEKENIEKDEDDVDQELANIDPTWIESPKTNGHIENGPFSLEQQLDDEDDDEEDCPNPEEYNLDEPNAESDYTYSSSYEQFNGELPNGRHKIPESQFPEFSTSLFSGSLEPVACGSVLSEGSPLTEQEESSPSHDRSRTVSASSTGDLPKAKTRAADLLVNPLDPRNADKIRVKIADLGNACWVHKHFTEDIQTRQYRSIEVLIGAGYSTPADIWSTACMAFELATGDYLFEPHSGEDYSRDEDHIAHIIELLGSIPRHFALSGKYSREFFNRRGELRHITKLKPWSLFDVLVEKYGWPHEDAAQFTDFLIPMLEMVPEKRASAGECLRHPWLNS

MAP2K2 (human) = MAP2K2 (human) (UniProt P36507)
HIPK4 (human) = HIPK4 (human) (UniProt Q8NE63)
CAMK1D (human) = CAMK1D (human) (UniProt Q8IU85)
NEK11 (human) = NEK11 (human) (UniProt Q8NG66)
Chain of NEK11 (human) (Q8NG66 whole entry, looked up): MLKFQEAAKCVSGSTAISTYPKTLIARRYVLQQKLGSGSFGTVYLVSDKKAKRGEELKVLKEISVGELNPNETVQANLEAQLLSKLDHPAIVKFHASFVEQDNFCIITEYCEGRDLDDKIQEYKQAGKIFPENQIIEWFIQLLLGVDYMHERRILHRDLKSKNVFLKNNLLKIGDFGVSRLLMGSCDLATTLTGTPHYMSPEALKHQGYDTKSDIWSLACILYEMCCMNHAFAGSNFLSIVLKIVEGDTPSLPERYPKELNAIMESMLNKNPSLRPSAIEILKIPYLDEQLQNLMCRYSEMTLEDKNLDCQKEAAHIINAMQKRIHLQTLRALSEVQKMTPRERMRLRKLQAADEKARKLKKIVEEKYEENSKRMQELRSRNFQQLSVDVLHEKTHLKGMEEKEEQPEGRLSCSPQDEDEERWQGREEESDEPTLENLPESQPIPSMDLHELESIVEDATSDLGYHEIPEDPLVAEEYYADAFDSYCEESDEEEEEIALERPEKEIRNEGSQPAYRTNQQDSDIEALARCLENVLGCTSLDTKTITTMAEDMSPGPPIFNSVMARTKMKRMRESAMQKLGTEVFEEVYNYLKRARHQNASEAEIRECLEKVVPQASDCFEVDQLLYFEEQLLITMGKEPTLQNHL

PRKCD (human) = PRKCD (human) (UniProt Q05655)
MAPK3 (human) = MAPK3 (human) (UniProt P27361)
Chain of MAPK3 (human) (P27361 whole entry, looked up): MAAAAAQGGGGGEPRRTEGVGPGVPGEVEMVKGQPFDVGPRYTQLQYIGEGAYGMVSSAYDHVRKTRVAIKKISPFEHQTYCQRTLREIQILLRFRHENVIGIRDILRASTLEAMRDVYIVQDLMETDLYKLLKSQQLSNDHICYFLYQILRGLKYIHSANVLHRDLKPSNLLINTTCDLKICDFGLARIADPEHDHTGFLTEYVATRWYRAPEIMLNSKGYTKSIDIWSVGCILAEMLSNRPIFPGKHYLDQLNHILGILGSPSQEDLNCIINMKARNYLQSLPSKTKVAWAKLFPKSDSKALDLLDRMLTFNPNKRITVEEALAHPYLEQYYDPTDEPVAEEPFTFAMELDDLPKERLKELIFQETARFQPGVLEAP

YES1 (human) = YES1 (human) (UniProt P07947)
MAPK1 (human) = MAPK1 (human) (UniProt P28482)
PTK2 (human) = PTK2 (human) (UniProt Q05397)
CDK5 CDK5R1 p35 (human) = CDK5 CDK5R1 p35 (human) (UniProt Q00535+Q15078)
TSSK1B (human) = TSSK1B (human) (UniProt Q9BXA7)
PRKCA (human) = PRKCA (human) (UniProt P17252)
CSNK1G3 (human) = CSNK1G3 (human) (UniProt Q9Y6M4)
DYRK3 (human) = DYRK3 (human) (UniProt O43781)
PHKG1 (human) = PHKG1 (human) (UniProt Q16816)
Chain of PHKG1 (human) (Q16816 whole entry, looked up): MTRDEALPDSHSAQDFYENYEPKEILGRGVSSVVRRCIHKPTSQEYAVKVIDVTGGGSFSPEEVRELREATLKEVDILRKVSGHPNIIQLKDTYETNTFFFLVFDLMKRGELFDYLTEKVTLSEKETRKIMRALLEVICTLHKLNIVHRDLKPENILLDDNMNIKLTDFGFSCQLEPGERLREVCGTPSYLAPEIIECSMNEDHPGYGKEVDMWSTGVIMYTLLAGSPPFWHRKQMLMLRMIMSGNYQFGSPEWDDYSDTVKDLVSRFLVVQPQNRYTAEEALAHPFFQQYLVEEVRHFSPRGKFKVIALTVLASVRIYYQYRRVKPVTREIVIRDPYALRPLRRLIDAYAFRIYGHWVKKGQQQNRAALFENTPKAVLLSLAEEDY

MST1R (human) = MST1R (human) (UniProt Q04912)
MAP3K10 (human) = MAP3K10 (human) (UniProt Q02779)
CAMK4 (human) = CAMK4 (human) (UniProt Q16566)
PRKD1 (human) = PRKD1 (human) (UniProt Q15139)
OXSR1 (human) = OXSR1 (human) (UniProt O95747)
MAPKAPK3 (human) = MAPKAPK3 (human) (UniProt Q16644)
FGFR4 (human) = FGFR4 (human) (UniProt P22455)
NEK9 (human) = NEK9 (human) (UniProt Q8TD19)
STK10 (human) = STK10 (human) (UniProt O94804)
Chain of STK10 (human) (O94804 whole entry, looked up): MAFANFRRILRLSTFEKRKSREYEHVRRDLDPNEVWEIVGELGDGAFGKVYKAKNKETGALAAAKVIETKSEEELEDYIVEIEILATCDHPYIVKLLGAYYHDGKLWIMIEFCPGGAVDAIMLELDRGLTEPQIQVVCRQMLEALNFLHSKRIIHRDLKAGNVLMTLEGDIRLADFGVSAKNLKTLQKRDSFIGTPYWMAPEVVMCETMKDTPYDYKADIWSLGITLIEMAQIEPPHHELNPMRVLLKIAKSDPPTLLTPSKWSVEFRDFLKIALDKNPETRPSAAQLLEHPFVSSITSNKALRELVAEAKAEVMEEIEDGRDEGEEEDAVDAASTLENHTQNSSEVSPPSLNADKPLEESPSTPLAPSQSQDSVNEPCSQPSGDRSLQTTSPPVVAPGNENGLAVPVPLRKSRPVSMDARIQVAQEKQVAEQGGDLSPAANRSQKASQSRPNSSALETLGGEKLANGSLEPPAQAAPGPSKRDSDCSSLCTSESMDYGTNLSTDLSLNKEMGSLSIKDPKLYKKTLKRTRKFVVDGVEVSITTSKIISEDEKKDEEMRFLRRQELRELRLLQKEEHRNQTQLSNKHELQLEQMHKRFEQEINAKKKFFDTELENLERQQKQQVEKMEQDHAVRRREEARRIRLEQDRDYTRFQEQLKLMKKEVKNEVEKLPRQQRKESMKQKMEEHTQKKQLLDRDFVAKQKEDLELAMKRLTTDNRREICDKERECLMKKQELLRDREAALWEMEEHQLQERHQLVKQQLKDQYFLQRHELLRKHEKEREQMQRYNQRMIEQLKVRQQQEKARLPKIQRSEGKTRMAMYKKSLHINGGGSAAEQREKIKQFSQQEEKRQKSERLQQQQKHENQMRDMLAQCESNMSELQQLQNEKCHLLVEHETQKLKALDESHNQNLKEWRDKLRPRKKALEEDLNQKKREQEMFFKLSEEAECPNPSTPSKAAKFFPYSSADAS

PKN1 (human) = PKN1 (human) (UniProt Q16512)
CAMKK1 (human) = CAMKK1 (human) (UniProt Q8N5S9)
GSK3A (human) = GSK3A (human) (UniProt P49840)
TXK (human) = TXK (human) (UniProt P42681)
Chain of TXK (human) (P42681 whole entry, looked up): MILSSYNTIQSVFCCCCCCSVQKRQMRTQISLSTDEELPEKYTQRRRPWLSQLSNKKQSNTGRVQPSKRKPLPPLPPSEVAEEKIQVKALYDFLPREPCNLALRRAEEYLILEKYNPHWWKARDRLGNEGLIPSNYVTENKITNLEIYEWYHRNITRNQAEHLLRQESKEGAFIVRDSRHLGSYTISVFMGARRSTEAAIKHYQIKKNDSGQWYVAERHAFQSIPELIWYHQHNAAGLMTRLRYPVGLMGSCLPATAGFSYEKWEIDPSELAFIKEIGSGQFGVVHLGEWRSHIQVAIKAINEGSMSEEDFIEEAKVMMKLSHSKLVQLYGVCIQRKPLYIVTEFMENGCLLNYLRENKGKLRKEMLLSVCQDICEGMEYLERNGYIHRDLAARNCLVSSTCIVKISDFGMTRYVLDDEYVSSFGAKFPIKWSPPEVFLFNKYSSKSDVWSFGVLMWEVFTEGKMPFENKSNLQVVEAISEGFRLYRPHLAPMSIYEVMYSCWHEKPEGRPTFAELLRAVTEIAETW

Chain of CDK4 CCND1 (human) (P11802 whole entry, looked up): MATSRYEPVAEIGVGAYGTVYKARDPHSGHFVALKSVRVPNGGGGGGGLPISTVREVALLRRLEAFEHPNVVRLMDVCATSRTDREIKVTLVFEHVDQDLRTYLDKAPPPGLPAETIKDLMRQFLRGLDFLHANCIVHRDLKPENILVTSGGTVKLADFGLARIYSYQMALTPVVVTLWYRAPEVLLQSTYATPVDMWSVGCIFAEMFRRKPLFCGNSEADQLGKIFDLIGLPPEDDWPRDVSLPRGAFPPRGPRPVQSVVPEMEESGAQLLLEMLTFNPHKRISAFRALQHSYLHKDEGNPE
Chain of CDK4 CCND1 (human) (P24385 whole entry, looked up): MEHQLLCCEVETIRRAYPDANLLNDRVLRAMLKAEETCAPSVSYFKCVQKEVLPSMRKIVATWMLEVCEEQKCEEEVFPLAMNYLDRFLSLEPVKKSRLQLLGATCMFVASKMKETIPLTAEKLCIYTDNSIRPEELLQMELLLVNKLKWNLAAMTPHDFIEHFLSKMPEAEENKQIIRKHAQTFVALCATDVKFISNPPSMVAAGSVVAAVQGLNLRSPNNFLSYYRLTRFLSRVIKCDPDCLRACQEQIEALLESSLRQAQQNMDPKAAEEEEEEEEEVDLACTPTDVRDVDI

With `COc1cccc(-c2cc(=O)c3ccccc3o2)c1N` the residual activity [1] was 92.7%, the residual activity (CDK4 CCND1 (human)) was 100% and the residual activity (CSNK1D (human)) was 99.1%. For the same compound, the residual activity (RPS6KB2 (human)) was 84.5%, the residual activity (ROCK2 (human)) was 91.5% and the residual activity (NLK (human)) was 96.4%. It also gave a residual activity (SRMS (human)) of 104%, a residual activity (EPHA2 (human)) of 105% and a residual activity (PDGFRB (human)) of 99.4%. For the same compound, the residual activity (ULK2 (human)) was 109%, the residual activity (STK17A (human)) was 96.9% and the residual activity (STK25 (human)) was 106%. It also gave a residual activity (CSNK2A2 (human)) of 97.7%, a residual activity (SRPK2 (human)) of 91.7% and a residual activity (MAP2K2 (human)) of 69.2%. It also gave a residual activity (HIPK4 (human)) of 98.6%, a residual activity (CAMK1D (human)) of 65.3% and a residual activity (NEK11 (human)) of 92.9%. It also gave a residual activity (PRKCD (human)) of 106%, a residual activity (MAPK3 (human)) of 102% and a residual activity (YES1 (human)) of 93.5%. The residual activity (MAPK1 (human)) was 97.1%, the residual activity (PTK2 (human)) was 98.2% and the residual activity (CDK5 CDK5R1 p35 (human)) was 101%. It also gave a residual activity (TSSK1B (human)) of 82.4%, a residual activity (PRKCA (human)) of 102% and a residual activity (CSNK1G3 (human)) of 97.7%. The residual activity (DYRK3 (human)) was 90.3%, the residual activity (PHKG1 (human)) was 92.9% and the residual activity (MST1R (human)) was 93.4%. For the same compound, the residual activity (MAP3K10 (human)) was 90%, the residual activity (CAMK4 (human)) was 104% and the residual activity (PRKD1 (human)) was 103%. The residual activity (OXSR1 (human)) was 91.2%, the residual activity (MAPKAPK3 (human)) was 88.1% and the residual activity (FGFR4 (human)) was 104%. For the same compound, the residual activity (NEK9 (human)) was 102%, the residual activity (STK10 (human)) was 90.4% and the residual activity (PKN1 (human)) was 102%. The residual activity (CAMKK1 (human)) was 98.8%, the residual activity (GSK3A (human)) was 97% and the residual activity (TXK (human)) was 94.6%.

With `O=C(O)c1ccc2c3c1cccc3c(=O)n1c3ccccc3nc21` the residual activity [1] was 22.8%, the residual activity (CDK4 CCND1 (human)) was 106% and the residual activity (CSNK1D (human)) was 101%. The residual activity (RPS6KB2 (human)) was 98%, the residual activity (ROCK2 (human)) was 99% and the residual activity (NLK (human)) was 96.1%. The residual activity (SRMS (human)) was 106%, the residual activity (EPHA2 (human)) was 102% and the residual activity (PDGFRB (human)) was 107%. It also gave a residual activity (ULK2 (human)) of 93.9%, a residual activity (STK17A (human)) of 73.4% and a residual activity (STK25 (human)) of 104%. It also gave a residual activity (CSNK2A2 (human)) of 13.3%, a residual activity (SRPK2 (human)) of 89.3% and a residual activity (MAP2K2 (human)) of 105%. The residual activity (HIPK4 (human)) was 86.9%, the residual activity (CAMK1D (human)) was 100% and the residual activity (NEK11 (human)) was 83%. It also gave a residual activity (PRKCD (human)) of 103%, a residual activity (MAPK3 (human)) of 102% and a residual activity (YES1 (human)) of 96.6%. It also gave a residual activity (MAPK1 (human)) of 100%, a residual activity (PTK2 (human)) of 97.5% and a residual activity (CDK5 CDK5R1 p35 (human)) of 88%. The residual activity (TSSK1B (human)) was 112%, the residual activity (PRKCA (human)) was 101% and the residual activity (CSNK1G3 (human)) was 96.9%. For the same compound, the residual activity (DYRK3 (human)) was 92.3%, the residual activity (PHKG1 (human)) was 91.5% and the residual activity (MST1R (human)) was 100%. The residual activity (MAP3K10 (human)) was 99.3%, the residual activity (CAMK4 (human)) was 101% and the residual activity (PRKD1 (human)) was 86.2%. For the same compound, the residual activity (OXSR1 (human)) was 104%, the residual activity (MAPKAPK3 (human)) was 103% and the residual activity (FGFR4 (human)) was 88.6%. For the same compound, the residual activity (NEK9 (human)) was 94.1%, the residual activity (STK10 (human)) was 88.6% and the residual activity (PKN1 (human)) was 99.5%. The residual activity (CAMKK1 (human)) was 45.8%, the residual activity (GSK3A (human)) was 87.3% and the residual activity (TXK (human)) was 102%.

In the case of `CCCCc1c(-c2ccc(O)cc2)[nH]c2nccnc12`, the residual activity [1] is reported as 43.4%, the residual activity (CDK4 CCND1 (human)) is reported as 66.4% and the residual activity (CSNK1D (human)) is reported as 93.7%. It also gave a residual activity (RPS6KB2 (human)) of 102%, a residual activity (ROCK2 (human)) of 97.5% and a residual activity (NLK (human)) of 90.3%. It also gave a residual activity (SRMS (human)) of 95.4%, a residual activity (EPHA2 (human)) of 81.7% and a residual activity (PDGFRB (human)) of 91.4%. It also gave a residual activity (ULK2 (human)) of 112%, a residual activity (STK17A (human)) of 84.9% and a residual activity (STK25 (human)) of 91.4%. The residual activity (CSNK2A2 (human)) was 94.7%, the residual activity (SRPK2 (human)) was 110% and the residual activity (MAP2K2 (human)) was 84.7%. The residual activity (HIPK4 (human)) was 108%, the residual activity (CAMK1D (human)) was 96.9% and the residual activity (NEK11 (human)) was 92.5%. The residual activity (PRKCD (human)) was 102%, the residual activity (MAPK3 (human)) was 101% and the residual activity (YES1 (human)) was 46.5%. For the same compound, the residual activity (MAPK1 (human)) was 106%, the residual activity (PTK2 (human)) was 83.1% and the residual activity (TSSK1B (human)) was 62%. It also gave a residual activity (PRKCA (human)) of 83.7%, a residual activity (CSNK1G3 (human)) of 82.3% and a residual activity (DYRK3 (human)) of 90.9%. The residual activity (PHKG1 (human)) was 86.7%, the residual activity (MST1R (human)) was 101% and the residual activity (MAP3K10 (human)) was 74.3%. The residual activity (CAMK4 (human)) was 93.9%, the residual activity (PRKD1 (human)) was 77.7% and the residual activity (OXSR1 (human)) was 95.5%. The residual activity (MAPKAPK3 (human)) was 92.8%, the residual activity (FGFR4 (human)) was 91.8% and the residual activity (NEK9 (human)) was 105%. The residual activity (STK10 (human)) was 82.8%, the residual activity (PKN1 (human)) was 90.3% and the residual activity (CAMKK1 (human)) was 89.7%. For the same compound, the residual activity (GSK3A (human)) was 57.7% and the residual activity (TXK (human)) was 65%.
